Laboratory results published in patent US20230279020A9, “CARM1 INHIBITORS AND USES THEREOF” (Epizyme, Inc., priority 2013, published 2023).

target: Human CARM1 (PRMT4) (Homo sapiens (Human), UniProt Q86X55); assay: CARM1 enzyme assay on peptide substrate (3H-SAM Flashplate); details: Biochemical potencies, classification codes; read-out: Biochem IC50
Description: S-adenosylmethionine (SAM), S-adenosylhomocysteine (SAH), bicine, Tween20, dimethylsulfoxide (DMSO), bovine skin gelatin (BSG), sodium butyrate and Tris(2-carboxyethyl)phosphine hydrochloride solution (TCEP) were purchased from Sigma-Aldrich at the highest level of purity possible. ^3H-SAM was purchase from American Radiolabeled Chemicals with a specific activity of 80 Ci/mmol. 384-well streptavidin Flashplates were purchased from PerkinElmer.
Peptide representative of human histone H3 residues 16-30 was synthesized with an N-terminal linker-affinity tag motif and a C-terminal amide cap by 21st Century Biochemicals. […] The sequence was Biot-Ahx-[…]-amide and contained a monomethylated arginine at position 26 (SEQ ID NO.:1).
The gene sequence encoding isoform1 containing a deletion of amino acids 539-561 was amplified subsequently and subcloned into pFastBacMam (Viva Biotech).
Recombinant baculovirus were generated according to Bac-to-Bac kit instructions (Life Technologies). Protein over-expression was accomplished by infecting exponentially growing HEK 293F cell culture at 1.3×10^6cell/ml with virus (MOI=10) in the presence of 8 mM sodium butyrate. Infections were carried out at 37° C. for 48 hours, harvested by centrifugation, and stored at −80° C. for purification.
Expressed full-length human Flag- and His-tagged CARM1 protein was purified from cell paste by anti-flag M2 affinity chromatography with resin equilibrated with buffer containing 20 mM Tris, 150 mM NaCl, 5% glycerol, pH 7.8. Column was washed with 500 mM NaCl in buffer A and Flag-CARM1-His was eluted with 200 ug/ml FLAG peptide in buffer A. Pooled fractions were dialyzed in 20 mM Tris, 150 mM NaCl, 5% glycerol and 1 mM DTT, pH 7.8.
The assays were all performed in a buffer consisting of 20 mM Bicine (pH=7.6), 1 mM TCEP, 0.005% BSG, and 0.002% Tween 20, prepared on the day of use. Compounds in 100% DMSO (1 ul) were spotted into a polypropylene 384-well V-bottom plates (Greiner) using a Platemate Plus outfitted with a 384-channel head (Thermo Scientific). DMSO (1 ul) was added to Columns 11, 12, 23, 24, rows A-H for the maximum signal control and 1 ul of SAH, a known product and inhibitor of CARM1, was added to columns 11, 12, 23, 24, rows I-P for the minimum signal control. A cocktail (40 ul) containing the CARM1 enzyme was added by Multidrop Combi (Thermo-Fisher). The compounds were allowed to incubate with CARM1 for 30 min at room temperature, then a cocktail (10 ul) containing ^3H-SAM and peptide was added to initiate the reaction (final volume=51 ul). The final concentrations of the components were as follows: CARM1 was 0.25 nM, ^3H-SAM was 30 nM, peptide was 250 nM, SAH in the minimum signal control wells was 1 mM, and the DMSO concentration was 2%. The assays were stopped by the addition of non-radiolabeled SAM (10 ul) to a final concentration of 300 uM, which dilutes the ^3H-SAM to a level where its incorporation into the peptide substrate is no longer detectable. 50 ul of the reaction in the 384-well polypropylene plate was then transferred to a 384-well Flashplate and the biotinylated peptides were allowed to bind to the streptavidin surface for at least 1 hour before being washed once with 0.1% Tween20 in a Biotek ELx405 plate washer. The plates were then read in a PerkinElmer TopCount plate reader to measure the quantity of ^3H-labeled peptide bound to the Flashplate surface, measured as disintegrations per minute (dpm) or alternatively, referred to as counts per minute (cpm).
where dpm=disintegrations per minute, cmpd=signal in assay well, and min and max are the respective minimum and maximum signal controls.
where top and bottom are the normally allowed to float, but may be fixed at 100 or 0 respectively in a 3-parameter fit. The Hill Coefficient normally allowed to float but may also be fixed at 1 in a 3-parameter fit. Y is the % inhibition and X is the compound concentration.

Sequence of Human CARM1 (PRMT4) (Q86X55 other isoform, or with tags, fused parts or gaps isoform Q86X55-1): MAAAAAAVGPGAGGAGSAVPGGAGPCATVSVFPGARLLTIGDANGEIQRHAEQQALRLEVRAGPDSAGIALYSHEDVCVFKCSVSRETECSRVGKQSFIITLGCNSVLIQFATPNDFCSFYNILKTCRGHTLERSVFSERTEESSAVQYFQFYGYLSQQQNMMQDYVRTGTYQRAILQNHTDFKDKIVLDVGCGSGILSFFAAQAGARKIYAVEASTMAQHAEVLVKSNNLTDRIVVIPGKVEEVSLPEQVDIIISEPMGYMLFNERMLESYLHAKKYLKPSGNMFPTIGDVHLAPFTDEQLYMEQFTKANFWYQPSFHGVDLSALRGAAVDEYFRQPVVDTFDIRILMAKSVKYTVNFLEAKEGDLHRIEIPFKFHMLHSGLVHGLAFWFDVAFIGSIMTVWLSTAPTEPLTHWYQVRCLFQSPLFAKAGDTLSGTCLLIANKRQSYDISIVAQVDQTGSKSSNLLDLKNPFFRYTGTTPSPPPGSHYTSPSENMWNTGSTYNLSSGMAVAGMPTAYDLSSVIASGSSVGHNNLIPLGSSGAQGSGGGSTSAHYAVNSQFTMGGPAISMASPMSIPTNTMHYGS

CNCC(O)COc1cccc(-c2nc(-c3ccncc3)cc(N(C)C3CCOCC3)n2)c1 (stereo not drawn) [Example 1-1] and CNCC(O)COc1cccc(-c2cc(N(C)C3CCOCC3)nc(-c3ccncc3)n2)c1 (stereo not drawn) [Example 2-1] cannot be ordered by IC50: under 100 nM for the first, under 100 nM for the second.

CNCC(O)COc1cccc(-c2nc(-c3c(C)noc3C)cc(N(C)C3CCOCC3)n2)c1 (stereo not drawn) [Example 1-1a] and CNC[C@H](O)COc1cccc(-c2nc(NC3CCOCC3)cc(-c3c(C)noc3C)n2)c1 [Example 17-1a] cannot be ordered by IC50: under 100 nM for the first, under 100 nM for the second.

CNCC(O)COc1cccc(-c2nc(NC3CNC3)c(C)c(-c3c(C)noc3C)n2)c1 (stereo not drawn) [Example 1-3] and CNCC(O)COc1cccc(-c2nc(NC3CC(F)C3)c(C)c(-c3c(C)noc3C)n2)c1 (stereo not drawn) [Example 3-3] cannot be ordered by IC50: under 100 nM for the first, under 100 nM for the second.

CCc1nc(-c2cccc(OCC(O)CNC)c2)cc(N(C)C2CCOCC2)n1 (stereo not drawn) [Example 2-2] and C=C(C)c1nc(-c2cccc(OCC(O)CNC)c2)cc(N(C)C2CCOCC2)n1 (stereo not drawn) [Example 5-2] cannot be ordered by IC50: under 100 nM for the first, under 100 nM for the second.

CNCC(O)COc1ccc(Cl)c(-c2nc(NC[C@H]3COCCN3C3COC3)c(C)c(-c3c(C)noc3C)n2)c1 (stereo partly drawn) [Example 2-3] and CNCC(O)COc1ccc(Cl)c(-c2nc(NCC3CCOCC3)c(C)c(-c3c(C)noc3C)n2)c1 (stereo not drawn) [Example 9-3] cannot be ordered by IC50: under 100 nM for the first, under 100 nM for the second.

CNCC(O)COc1cccc(-c2nc(N[C@@H]3CCOC3)c(C)c(N3CCOCC3)n2)c1 (stereo partly drawn) [Example 3-1] and CNCC(O)COc1cccc(-c2nc(N[C@@H]3CCOC3)c(C)c(N3CC4CN(S(C)(=O)=O)CC4C3)n2)c1 (stereo partly drawn) [Example 11-3] cannot be ordered by IC50: under 100 nM for the first, under 100 nM for the second.

CNCC(O)COc1cccc(-c2nc(-c3c(C)noc3C)cc(-c3c(C)noc3C)n2)c1 (stereo not drawn) [Example 3-1a] and CNCC(O)COc1cc(Cl)cc(-c2nc(-c3c(C)noc3C)cc(-c3c(C)noc3C)n2)c1 (stereo not drawn) [Example 4-1a] cannot be ordered by IC50: under 100 nM for the first, under 100 nM for the second.

Going from CNCC(O)COc1cccc(-c2nccc(NC3CCOCC3)n2)c1 (stereo not drawn) [Example 4-1] to CNC[C@@H](O)COc1cccc(-c2nc(NC3CCOCC3)cc(-c3c(C)noc3C)n2)c1 [Example 18-1a], the IC50 falls from over 10000 nM to under 100 nM. The second is the more potent here.

CNCC(O)COc1cccc(-c2cc(N(C)C3CCOCC3)nc(C3CC3)n2)c1 (stereo not drawn) [Example 4-2] and CNCC(O)COc1cccc(-c2nc(C3CC3)cc(N(C)C3CCOCC3)n2)c1 (stereo not drawn) [Example 10-1] cannot be ordered by IC50: under 100 nM for the first, under 100 nM for the second.

CNCC(O)COc1ccc(Cl)c(-c2nc(N[C@H]3CCN(C(=O)OC)C[C@H]3F)c(C)c(-c3c(C)noc3C)n2)c1 (stereo partly drawn) [Example 4-3] and CNCC(O)COc1ccc(Cl)c(-c2nc(NC[C@H]3CCCO3)c(C)c(-c3c(C)noc3C)n2)c1 (stereo partly drawn) [Example 6-3] cannot be ordered by IC50: under 100 nM for the first, under 100 nM for the second.

CNCC(O)COc1cccc(-c2nc(-c3c(C)noc3C)cc(N(C)CCC#N)n2)c1 (stereo not drawn) [Example 5-1a] and CNCC(O)COc1cccc(-c2nc(NCCOC)cc(-c3c(C)noc3C)n2)c1 (stereo not drawn) [Example 20-1] cannot be ordered by IC50: under 100 nM for the first, under 100 nM for the second.

CNCC(O)COc1cccc(-c2nc(NC3(CO)CC3)c(C)c(-c3c(C)noc3C)n2)c1 (stereo not drawn) [Example 5-3] and CNCC(O)COc1cccc(-c2nc(NC3(C(F)(F)F)CC3)c(C)c(-c3c(C)noc3C)n2)c1 (stereo not drawn) [Example 8-3] cannot be ordered by IC50: under 100 nM for the first, under 100 nM for the second.

CNCC(O)COc1cccc(-c2nc(NC3CCOCC3)c(C)c(-c3c(C)noc3C)n2)c1 (stereo not drawn) [Example 6-1a] and CNCC(O)COc1cccc(-c2nc(N[C@H]3CCC[C@@H](O)C3)c(C)c(-c3c(C)noc3C)n2)c1 (stereo partly drawn) [Example 10-3] cannot be ordered by IC50: under 100 nM for the first, under 100 nM for the second.

CNCC(O)COc1cccc(-c2cc(N(C)C3CCOCC3)nc(C(C)C)n2)c1 (stereo not drawn) [Example 6-2] and CNCC(O)COc1cccc(-c2cc(N(C)C3CCOCC3)nc(N(C)C)n2)c1 (stereo not drawn) [Example 8-2] cannot be ordered by IC50: under 100 nM for the first, under 100 nM for the second.

CNCC(O)COc1cc(Cl)cc(-c2nc(NC3CCOCC3)cc(-c3c(C)noc3C)n2)c1 (stereo not drawn) [Example 7-1a] and CNCC(O)COc1cc(Cl)cc(-c2nc(N[C@@H]3CCOC3)cc(-c3c(C)noc3C)n2)c1 (stereo partly drawn) [Example 10-1a] cannot be ordered by IC50: under 100 nM for the first, under 100 nM for the second.

CNCC(O)COc1ccc(Cl)c(-c2nc(NC[C@@H]3CCCO3)c(C)c(-c3c(C)noc3C)n2)c1 (stereo partly drawn) [Example 7-3] and CNCC(O)COc1cccc(-c2nc(N[C@H]3C[C@@](C)(OC)C3)c(C)c(-c3c(C)noc3C)n2)c1 (stereo partly drawn) [Example 19-3] cannot be ordered by IC50: under 100 nM for the first, under 100 nM for the second.

CNCC(O)COc1cccc(-c2nc(-c3cncnc3)cc(-c3c(C)noc3C)n2)c1 (stereo not drawn) [Example 8-1a] and CNCC(O)COc1cc(Cl)cc(-c2nc(Nc3cncnc3)cc(-c3c(C)noc3C)n2)c1 (stereo not drawn) [Example 9-1a] cannot be ordered by IC50: under 100 nM for the first, under 100 nM for the second.

CNCC(O)COc1cccc(-c2nc(C3=CCCC3)cc(N(C)CCC#N)n2)c1 (stereo not drawn) [Example 9-1] and CNCC(O)COc1cccc(-c2nc(-c3cncnc3)cc(N(C)CCC#N)n2)c1 (stereo not drawn) [Example 18-1] cannot be ordered by IC50: under 100 nM for the first, under 100 nM for the second.

C=C(C)c1cc(N(C)C2CCOCC2)nc(-c2cccc(OCC(O)CNC)c2)n1 (stereo not drawn) [Example 11-1] and CNCC(O)COc1cccc(-c2nc(C(C)C)cc(N(C)C3CCOCC3)n2)c1 (stereo not drawn) [Example 13-1] cannot be ordered by IC50: under 100 nM for the first, under 100 nM for the second.

CNCC(O)COc1cccc(-c2nc(N[C@@H]3CCOC3)cc(-c3c(C)noc3C)n2)c1 (stereo partly drawn) [Example 11-1a] and CNCC(O)COc1cccc(-c2nc(N[C@H]3CCOC3)cc(-c3c(C)noc3C)n2)c1 (stereo partly drawn) [Example 13-1a] cannot be ordered by IC50: under 100 nM for the first, under 100 nM for the second.

CNCC(O)COc1cc(Cl)cc(-c2nc(N[C@H]3CCOC3)cc(-c3c(C)noc3C)n2)c1 (stereo partly drawn) [Example 12-1a] and Cc1noc(C)c1-c1cc(NC2CCOCC2)nc(-c2cccc(OC[C@@H](O)CN)c2)n1 [Example 15-1a] cannot be ordered by IC50: under 100 nM for the first, under 100 nM for the second.

CNCC(O)COc1cccc(-c2nc(-c3c(C)noc3C)c(C)c(N3CC(NC(=O)OC)C3)n2)c1 (stereo not drawn) [Example 12-3] and CCC(=O)NC1CN(c2nc(-c3cccc(OCC(O)CNC)c3)nc(-c3c(C)noc3C)c2C)C1 (stereo not drawn) [Example 14-3] cannot be ordered by IC50: under 100 nM for the first, under 100 nM for the second.

CNCC(O)COc1cccc(-c2nc(-c3c(C)noc3C)c(C)c(N3CC(NC(=O)N(C)C)C3)n2)c1 (stereo not drawn) [Example 13-3] and CNCC(O)COc1cccc(-c2nc(-c3c(C)noc3C)c(C)c(N3CCC[C@H](N(C)C(=O)OC)C3)n2)c1 (stereo partly drawn) [Example 15-3] cannot be ordered by IC50: under 100 nM for the first, under 100 nM for the second.

NCC(O)COc1cccc(-c2nc(N3CCOCC3)cc(N3CCOCC3)n2)c1 (stereo not drawn) [Example 14-1] and CNCC(O)COc1cccc(-c2cc(N(C)C3CCOCC3)nc(N3CCOCC3)n2)c1 (stereo not drawn) [Example 15-2] cannot be ordered by IC50: under 100 nM for the first, under 100 nM for the second.

CNCC(O)COc1cccc(-c2cc(N(C)C3CCOCC3)nc(-c3cccnc3)n2)c1 (stereo not drawn) [Example 14-2] and CNCC(O)COc1cccc(-c2cc(N(C)C3CCOCC3)nc(-c3cnc4[nH]ccc4c3)n2)c1 (stereo not drawn) [Example 16-2] cannot be ordered by IC50: under 100 nM for the first, under 100 nM for the second.

CNCC(O)COc1cccc(-c2nc(N(C)C)cc(N(C)C3CCOCC3)n2)c1 (stereo not drawn) [Example 15-1] and CNCC(O)COc1cccc(-c2nc(N(C)C3CCOCC3)cc(C3(C)CC3)n2)c1 (stereo not drawn) [Example 19-1] cannot be ordered by IC50: under 100 nM for the first, under 100 nM for the second.

Cc1noc(C)c1-c1cc(NC2CCOCC2)nc(-c2cccc(OC[C@H](O)CN)c2)n1 [Example 16-1a] and CNCC(O)COc1cccc(-c2nc(-c3c(C)noc3C)cc(N3CCN(C)CC3)n2)c1 (stereo not drawn) [Example 19-1a] cannot be ordered by IC50: under 100 nM for the first, under 100 nM for the second.

CCS(=O)(=O)N1CC2(CN(c3nc(-c4cccc(OCC(O)CNC)c4)nc(-c4c(C)noc4C)c3C)C2)C1 (stereo not drawn) [Example 16-3] and CNCC(O)COc1cccc(-c2nc(-c3c(C)noc3C)c(C)c(N3CCN(C(=O)OC)C(C(F)F)C3)n2)c1 (stereo not drawn) [Example 17-3] cannot be ordered by IC50: under 100 nM for the first, under 100 nM for the second.

CNCC(O)COc1cccc(-c2nc(Nc3nccn3C)c(C)c(-c3c(C)noc3C)n2)c1 (stereo not drawn) [Example 18-3] was tested, and the IC50 was under 100 nM.
